Measurements taken from patent US10087417B2, “Three-dimensional model of human cortex” (priority 2015, dated 2018).

Legend:
Type in all cases: cell-based, human
neocortical organoids [1] = conditions: 3 μM cocaine 1 h every other day, days 32-44; measured day 44
Method: Endogenous ROS were measured by incubating neocortical organoids at day 44 with 100 μM 2′,7′-dichlorofluorescein diacetate (DCFH-DA) (Sigma-Aldrich) for 30 min with or without cocaine. The organoids were washed and dissolved in 1% Triton X-100 in PBS. Fluorescence for each sample was measured at an excitation wavelength of 485 nm, and an emission wavelength of 530 nm using a fluorescence microplate reader (Techan Genios). Protein concentration for each sample was determined using the BCA assay (Pierce BCA® Protein Assay Kits; Thermo Scientific), according to manufacturer's instructions. The level of endogenous ROS for each sample was determined by dividing the fluorescence units by the concentration of protein in the lysate.
Taking into consideration that cocaine concentrations in the fetal rat neocortex drop rapidly to negligible levels 1 h after cocaine administration (Lee et al, PLoS Med. 5:e117, 2008), and to create a physiologically-meaningful drug treatment schedule in vitro, the neocortical organoids were exposed to a pharmacologically-relevant dose of cocaine, 3 μM (Kindberg et al, Dis. Model Mech. 7:1397-1405, 2014), for 1 h every other day, from days 32-44. […] In the present model, post-mitotic neurons migrated toward the periphery of the NE. […] The percentage of BrdU^+ cells that expressed TUJ1 was increased by cocaine as compared to control (FIG. 5F and FIG. 6B).

[2] = tested on: PAX6+ NE cells of neocortical organoids; conditions: 3 μM cocaine 1 h every other day, days 32-44; day 45; H9 and H14
Method: (§1) FIGS. 5A-5I is a series of panels showing neurodevelopmental effects of cocaine mediated by CYP3A5. FIG. 5A is an image showing RT-PCR analysis of expression of CYP3A family genes at different stages of neocortical organoid differentiation. “Neocortical organoids” indicates day 44 of differentiation. FIG. 5B is a graph showing ROS formation in the neocortical organoids in presence or absence of cocaine. Neocortical organoids were treated with 3 μM cocaine for 1 h every other day from day 32 to day 44, and endogenous ROS was measured at day 44. n=6. FIG. 5C is a graph showing effects of CYP3A5 or CYP3A43 knockdown on cocaine-induced ROS generation in H9 (dashed line, in the absence of cocaine). n=6. FIG. 5D is a graph showing proliferation of PAX6^+ NE cells of neocortical organoids in the presence or absence of cocaine in H9. Proliferation was examined at day 45 with 1 h BrdU (10 μM) incorporation. n=5. FIG. 5E is a graph showing effects of CYP3A5 or CYP3A43 knockdown on cocaine-induced inhibition of proliferation of PAX6^+ NE cells in H9 (dashed line, in the absence of cocaine). n=7. FIG. 5F is graph showing neuronal differentiation in neocortical organoids in the presence or absence of cocaine in H9. Neuronal differentiation was analyzed 24 h after 1 h BrdU (10 μM) treatment from day 51 to day 52. […] FIG. 5G is a graph showing effects of CYP3A5 or CYP3A43 knockdown on cocaine-induced premature neuronal differentiation in H9 (dashed line, in the absence of cocaine). n=7, FIG. 5H is a graph showing neural tissue development in the presence or absence of cocaine in H9. TUJ1^+ areas in the neocortical organoids were analyzed at day 66. TUJ1^+ areas expressed as percentages of total organoid area on day 24 are shown. n=6. FIG. 5I is a graph showing effects of CYP3A5 or CYP3A43 knockdown on cocaine-induced inhibition of neural tissue development in H9 (dashed line, in the absence of cocaine). n=6. Data are shown as means±SEM. Unpaired two-tailed Student's t-test for H9 and H14 in FIG. 5B, and for FIGS. 5D, 5F, and 5H. […]

neocortical organoids [3] = conditions: 3 μM cocaine days 32-44, days 51-52
Method: as §1

neocortical organoids [4] = conditions: 3 μM cocaine days 32-44; day 66; H9 and H14
Method: Adherent cells in culture were fixed with 4% PFA for 10 min, followed by PBS wash. Neocortical organoids embedded in collagen gel were immersed in 4% PFA for 20 min and cryoprotected in 20% sucrose in PBS for 20 min. Cryostat sections (10 μm) were thaw-mounted onto gelatin-subbed slides. Cells and tissue sections were blocked with 0.2% Triton X-100 in PBS supplemented with 5% BSA and 10% goat serum. Cells were then incubated with primary antibodies in 0.2% Triton X-100 in PBS with 5% BSA and 5% goat serum: rabbit anti-BF1 (1:100; Abcam), rat anti-CD133 (1:100; Millipore), rat anti-CTIP2 (1:50; Abcam), rabbit anti-CUX1 (1:100; Santa Cruz Biotechnology), rabbit anti-EMX1 (1:50; Sigma), mouse anti-gamma-tubulin (1:500; Sigma), rat anti-HOXB4 (1:50; DSHB), mouse anti-Ki67 (1:100; BD Biosciences), rabbit anti-N-cadherin (1:100; Abcam), mouse anti-Nestin (1:50; R&D Systems), mouse anti-NKX2.1 (1:200; Chemicon), mouse anti-PAX6 (1:50; DSHB), rabbit anti-PAX6 (1:300; Covance), rabbit anti-PH3 (1:500; Cell Signaling Technology), mouse anti-Reelin (1:200; Millipore), rabbit anti-TBR1 (1:1000; Abcam), and mouse anti-TUJ1 (1:2,000; Promega). […] TUJ1+ neocortical areas were calculated by normalization of TUJ1+ areas in the neocortical organoids at day 66 (using only sections from the center of each organoid) to organoid size at day 24. […]

[5] = tested on: neocortical neurons generated from hPSCs

SMILES | ROS generation in neocortical organoids (neocortical organoids [1]) | proliferation of PAX6+ NE cells [2] | migration of BrdU-labeled TUJ1 neurons outwards to the periphery of the NE area (neocortical organoids [3]; BrdU 1 h pulse, 24 h chase) | percentage of BrdU+ cells that expressed TUJ1, compared to control (neocortical organoids [3]; H9 and H14) | development of the TUJ1+ area (neocortical organoids [4]) | action potentials recorded in current clamp mode [5]
COC(=O)[C@H]1[C@@H](OC(=O)c2ccccc2)C[C@@H]2CC[C@H]1N2C [cocaine] | ROS accumulation was observed | inhibited | increased | increased | significantly inhibited | 
NC1=N[C@H](O)[C@H]2[C@H]3O[C@]4(O)O[C@@H]([C@@H](O)[C@@]2(N1)[C@@H]4O)[C@]3(O)CO [tetrodotoxin] |  |  |  |  |  | blocked
